According to ChEMBL document CHEMBL1128211, “3D-quantitative structure-activity relationships of human immunodeficiency virus type-1 proteinase inhibitors: comparative molecular field analysis of 2-heterosubstituted statine derivatives-implications for the design of novel inhibitors” (J Med Chem, 1995):

Target: Human immunodeficiency virus type 1 protease (Human immunodeficiency virus 1, UniProt Q72874)
Assay: Inhibitory activity was determined against HIV type 1 protease

SMILES	Ki [nM]
CCOc1ccc(CN[C@@H](C(=O)N[C@H]2c3ccccc3CC2O)[C@H](O)[C@H](Cc2ccccc2)NC(=O)[C@@H](NC(=O)OCc2ccccc2)C(C)(C)C)cc1 (stereo partly specified)	10
CCOc1ccc(CN[C@@H](C(=O)N[C@H](C(=O)NCc2nc3ccccc3[nH]2)C(C)C)[C@H](O)[C@H](Cc2ccccc2)NC(=O)[C@@H](NC(=O)OCc2ccccc2)C(C)C)cc1	24
COc1ccc(CN[C@@H](C(=O)N[C@H](C(=O)NCc2nc3ccccc3[nH]2)C(C)C)[C@H](O)[C@H](Cc2ccccc2)NC(=O)[C@@H](N)C(C)(C)C)cc1	7.76
CC(C)[C@H](NC(=O)[C@H](NCc1ccccc1)[C@H](O)[C@H](Cc1ccccc1)NC(=O)[C@@H](NC(=O)COc1ccccc1)C(C)(C)C)C(=O)NCc1ccccc1	15.8
COc1ccc(CN[C@@H](C(=O)N[C@H](C(=O)NCCc2ccc(S(N)(=O)=O)cc2)C(C)C)[C@H](O)[C@H](Cc2ccccc2)NC(=O)[C@@H](NC(=O)OCc2ccccc2)C(C)C)cc1	14.1
COc1ccc(CN[C@@H](C(=O)NC2c3ccccc3C[C@H]2O)[C@H](O)[C@H](Cc2ccccc2)NC(=O)[C@@H](NC(=O)C(O)Cc2ccccc2)C(C)(C)C)cc1 (stereo partly specified)	14.1
CC(C)[C@H](NC(=O)OCc1ccccc1)C(=O)N[C@@H](Cc1ccccc1)[C@@H](O)[C@@H](Nc1ccc(-c2ccccc2)cc1)C(=O)N[C@H](C(=O)NCc1nc2ccccc2[nH]1)C(C)C	8.91
CC(C)[C@H](NC(=O)[C@H](SCc1ccccc1)[C@H](O)[C@H](Cc1ccccc1)NC(=O)OC(C)(C)C)C(=O)NCc1ccccc1	26.9
COc1ccc(CN[C@@H](C(=O)N[C@H]2c3ccccc3CC2O)[C@H](O)[C@H](Cc2ccccc2)NC(=O)OC(C)(C)C)cc1 (stereo partly specified)	148
COc1ccc(CN[C@@H](C(=O)N[C@H]2c3ccccc3CC2O)[C@H](O)[C@H](Cc2ccccc2)NC(=O)[C@@H](NC(=O)c2cn3cccnc3n2)C(C)(C)C)cc1 (stereo partly specified)	22.9
CC(C)[C@H](NC(=O)OCc1ccccc1)C(=O)N[C@@H](Cc1ccccc1)[C@@H](O)[C@@H](NCc1ccc(Cl)cc1)C(=O)N[C@H](C(=O)NCc1ccccn1)C(C)C	6.46

Results, then the compound that gave them:

Ki [nM]	SMILES
794	CC(C)[C@H](NC(=O)[C@H](NCc1ccccc1)[C@H](O)[C@H](Cc1ccccc1)NC(=O)[C@H](O)C(C)C)C(=O)NCc1ccccc1
20.9	CC(C)[C@H](NC(=O)CCCCCNC(=O)OC(C)(C)C)C(=O)N[C@@H](Cc1ccccc1)[C@@H](O)[C@@H](NCc1ccccc1)C(=O)N[C@H](C(=O)NCc1ccccc1)C(C)C
33.1	CC(C)(C)OC(=O)N[C@@H](Cc1ccccc1)[C@@H](O)[C@@H](NCc1ccc(CNC(=O)Nc2ccccc2)cc1)C(=O)N[C@H]1c2ccccc2CC1O (stereo partly specified)
7.08	CC(C)[C@H](NC(=O)OCc1ccccc1)C(=O)N[C@@H](Cc1ccccc1)[C@@H](O)[C@@H](NCc1cccnc1)C(=O)N[C@H](C(=O)NCc1ccccc1)C(C)C
14.1	COc1ccc(CN[C@@H](C(=O)N[C@H](C(=O)NCc2ccc(OC)cc2O)C(C)C)[C@H](O)[C@H](Cc2ccccc2)NC(=O)[C@@H](NC(=O)OCc2ccccc2)C(C)C)cc1
1910	CCOC(=O)[C@H](NCc1ccc(CNCc2ccccc2)cc1)[C@H](O)[C@H](Cc1ccccc1)NC(=O)[C@@H](NC(=O)OCc1ccccc1)C(C)C
447	COc1ccc(CN[C@@H](C(=O)N[C@H](C(=O)NCc2nc3ccccc3[nH]2)C(C)C)[C@H](O)[C@H](Cc2ccccc2)NC(=O)[C@H](NC(=O)OCc2nc3cc[nH]cc-3n2)C(C)(C)C)cc1
1.24	CC(C)[C@H](NC(=O)[C@H](NCc1ccccc1)[C@H](O)[C@H](Cc1ccccc1)NC(=O)[C@@H](NC(=O)OCc1ccccn1)C(C)(C)C)C(=O)NCc1ccccc1
182	CC(C)[C@H](NC(=O)[C@H](NCc1ccc(Cl)cc1)[C@H](O)[C@@H](N)Cc1ccccc1)C(=O)NCc1nc2ccccc2[nH]1
19.1	COc1ccc(CN[C@@H](C(=O)N[C@H](C(=O)NCCn2cnc3ccccc32)C(C)C)[C@H](O)[C@H](Cc2ccccc2)NC(=O)[C@@H](NC(=O)OCc2ccccc2)C(C)C)cc1
